Bridge positions count the residues as written; N and C are the ends. Square brackets hold non-standard residues; d marks the D form. Peptide text beside a SMILES is read from it. R8 = C=CCCCCCC[C@@](C)(N)C(=O)O; R5 = C=CCCC[C@@](C)(N)C(=O)O; S5 = C=CCCC[C@](C)(N)C(=O)O; Nle = CCCC[C@H](N)C(=O)O
Molecular target: T1, flag-tagged HIF1α (AA 786-826) / His6-tagged p300 (AA 323-423) complex (Homo sapiens, UniProt Q09472)
T1 construct: His6-tagged p300 (AA 323-423); made in house; host or cells: E. coli (pETDuet vector)
Assay: HIF1α p300 displacement assay (TR FRET, +CHAPS)
Format: binding
Settings: read-out: IC50 (nM) (HIF1α_p300 Displacement + CHAPS)
Method: The ability of peptides to displace HIF1α c-terminal trans-activation domain from p300-CH was measured by a TR FRET assay. A complex of flag-tagged HIF1α (AA 786-826) and His6-tagged p300 (AA 323-423) was co-expressed using pETDuet vector (EMDMillipore, Bellrica Mass.) and purified from E. coli in the presence of 0.1 mM ZnSO4. The complex was diluted to 300 nM final in complete assay media and competitor peptides were added. The complete assay media contained 150 mM NaCl (Sigma +S5150 or equivalent), 20 mM HEPES pH 7.4 (Boston Bioproducts, Ashland, Mass.; #BB-2076), 7.5 mM CHAPS (Thermo #28300 or equivalent), and 1 mM DTT. Protein and peptide were incubated at room temperature for 1 hour before the addition of anti-Flag-K and anti-6×HIS-D2 (CisBio, Bedford Mass.) HTRF reconstitution buffer (50 mM Phosphate pH 7, 0.8 Potassium Flouride, BSA 0.2%)^1 to a final concentration of 0.5 μM and 4 nM respectively. The reaction continued for an additional two hours at room temperature. The reaction was read on a TECAN F500 plate reader with settings recommended by CisBio. The ratio of donor to acceptor fluorescence was calculated. The resulting data was analyzed with Graphpad Prism 5.0. IC50 values were calculated for both proteins using the One Site Fit-LogIC50 equation and presented in the column “IC50 (nM) (HIF1α_p300 Displacement+CHAPS)” of Table 6. ^1 Cisbio USA, Bedford, Mass.; 61HISDLB (lot 007A), 61FG2KLB (024A), HTRF Buffer (62RB3RDF)

SMILES | IC50
CC[C@H](C)[C@H](NC(=O)[C@H](Cc1ccccc1)NC(C)=O)C(=O)N[C@@H](CC(=O)O)C(=O)N[C@@H](CCC(=O)O)C(=O)N[C@@]1(C)CCCC=CCCC[C@@](C)(C(=O)N[C@@H](CC(C)C)C(=O)N[C@H](C(=O)N[C@H](C(=O)N[C@@H](CCC(=O)O)C(=O)N[C@@H](CCSC)C(=O)N[C@@H](C)C(N)=O)[C@@H](C)CC)C(C)C)NC(=O)[C@H](CCSC)NC(=O)[C@H](CC(C)C)NC(=O)[C@H](C(C)C)NC1=O [SP-115] (Ac-FIDE[S5]VLM[S5]LVIEMA-NH2; staple 5-9) | > 700 nM
CCCC[C@H](NC(=O)[C@H](CCC(=O)O)NC(=O)[C@@H](NC(=O)[C@@H](NC(=O)[C@H](CC(C)C)NC(=O)[C@]1(C)CCCC=CCCC[C@](C)(NC(=O)[C@H](CCC(=O)O)NC(=O)[C@H](CC(=O)O)NC(=O)[C@@H](NC(=O)[C@H](Cc2ccccc2)NC(C)=O)[C@@H](C)CC)C(=O)N[C@@H](C(C)C)C(=O)N[C@@H](CC(C)C)C(=O)N[C@@H](CCCC)C(=O)N1)C(C)C)[C@@H](C)CC)C(=O)N[C@@H](C)C(=O)N[C@@H](CC(C)C)C(=O)N[C@@H](CCCCN)C(N)=O [SP-132] (Ac-FIDE[S5]VL[Nle][S5]LVIE[Nle]ALK-NH2; staple 5-9) | > 700 nM
CCCC[C@H](NC(=O)[C@H](CCC(=O)O)NC(=O)[C@@H](NC(=O)[C@@H](NC(=O)[C@H](CC(C)C)NC(=O)[C@]1(C)CCCC=CCCC[C@](C)(NC(=O)[C@H](CCC(=O)O)NC(=O)[C@H](CC(=O)O)NC(=O)[C@@H](NC(=O)[C@H](Cc2ccccc2)NC(C)=O)[C@@H](C)CC)C(=O)N[C@@H](C(C)C)C(=O)N[C@@H](CC(C)C)C(=O)N[C@@H](CCCC)C(=O)N1)C(C)C)[C@@H](C)CC)C(=O)N[C@@H](C)C(=O)N[C@@H](CC(C)C)C(=O)N[C@@H](CCCCN)C(=O)N[C@@H](CCCCN)C(N)=O [SP-133] (Ac-FIDE[S5]VL[Nle][S5]LVIE[Nle]ALKK-NH2; staple 5-9) | > 700 nM
CCCC[C@H](NC(=O)[C@H](CCC(=O)O)NC(=O)[C@@H](NC(=O)[C@@H](NC(=O)[C@H](CC(C)C)NC(=O)[C@]1(C)CCCC=CCCC[C@](C)(NC(=O)[C@H](CCC(=O)O)NC(=O)[C@H](CC(=O)O)NC(=O)[C@@H](NC(=O)[C@H](Cc2ccccc2)NC(=O)[C@H](CCCCN)NC(=O)[C@H](CCCCN)NC(C)=O)[C@@H](C)CC)C(=O)N[C@@H](C(C)C)C(=O)N[C@@H](CC(C)C)C(=O)N[C@@H](CCCC)C(=O)N1)C(C)C)[C@@H](C)CC)C(=O)N[C@@H](C)C(=O)N[C@@H](CC(C)C)C(N)=O [SP-135] (Ac-KKFIDE[S5]VL[Nle][S5]LVIE[Nle]AL-NH2; staple 7-11) | > 700 nM
CCCC[C@H](NC(=O)[C@H](CCC(=O)O)NC(=O)[C@@H](NC(=O)[C@@H](NC(=O)[C@H](CC(C)C)NC(=O)[C@]1(C)CCCC=CCCC[C@](C)(NC(=O)[C@H](CCC(=O)O)NC(=O)[C@H](CC(=O)O)NC(=O)[C@@H](NC(=O)[C@H](Cc2ccccc2)NC(=O)[C@H](CCCCN)NC(C)=O)[C@@H](C)CC)C(=O)N[C@@H](C(C)C)C(=O)N[C@@H](CC(C)C)C(=O)N[C@@H](CCCC)C(=O)N1)C(C)C)[C@@H](C)CC)C(=O)N[C@@H](C)C(=O)N[C@@H](CC(C)C)C(=O)N[C@@H](CCCCN)C(N)=O [SP-136] (Ac-KFIDE[S5]VL[Nle][S5]LVIE[Nle]ALK-NH2; staple 6-10) | > 700 nM
CCCC[C@H](NC(=O)[C@H](CCC(=O)O)NC(=O)[C@@H](NC(=O)[C@@H](NC(=O)[C@H](CC(C)C)NC(=O)[C@]1(C)CCCC=CCCC[C@](C)(NC(=O)[C@H](CCC(=O)O)NC(=O)[C@H](CC(=O)O)NC(=O)[C@@H](NC(=O)[C@H](Cc2ccccc2)NC(=O)[C@H](CCCCN)NC(=O)[C@H](CCCCN)NC(C)=O)[C@@H](C)CC)C(=O)N[C@@H](C(C)C)C(=O)N[C@@H](CC(C)C)C(=O)N[C@@H](CCCC)C(=O)N1)C(C)C)[C@@H](C)CC)C(=O)N[C@@H](C)C(=O)N[C@@H](CC(C)C)C(=O)N[C@@H](CCCCN)C(=O)N[C@@H](CCCCN)C(N)=O [SP-137] (Ac-KKFIDE[S5]VL[Nle][S5]LVIE[Nle]ALKK-NH2; staple 7-11) | > 700 nM

The next lines start with the values.

IC50 | SMILES
200 to 400 nM | CCCC[C@H](NC(=O)[C@H](CCC(=O)O)NC(=O)[C@@H](NC(=O)[C@@H](NC(=O)[C@H](CC(N)=O)NC(=O)[C@]1(C)CCCC=CCCC[C@](C)(NC(=O)[C@H](C)NC(=O)[C@H](CC(=O)O)NC(=O)[C@@H](NC(=O)[C@H](Cc2ccccc2)NC(C)=O)[C@@H](C)CC)C(=O)N[C@@H](C(C)C)C(=O)N[C@@H](CC(C)C)C(=O)N[C@@H](CCCC)C(=O)N1)C(C)C)[C@@H](C)CC)C(=O)N[C@@H](C)C(=O)N[C@@H](CC(C)C)C(N)=O [SP-150] (Ac-FIDA[S5]VL[Nle][S5]NVIE[Nle]AL-NH2; staple 5-9)
> 700 nM | CC[C@H](C)[C@H](NC(=O)[C@H](Cc1ccccc1)NC(C)=O)C(=O)N[C@@H](CC(=O)O)C(=O)N[C@@H](CCC(=O)O)C(=O)N[C@]1(C)CCCCCCC=CCCC[C@@](C)(C(=O)N[C@@H](CCC(=O)O)C(=O)N[C@@H](CCSC)C(=O)N[C@@H](C)C(=O)N[C@@H](C)C(N)=O)NC(=O)[C@H](C(C)C)NC(=O)[C@H](CC(C)C)NC(=O)[C@H](CO)NC(=O)[C@H](CCSC)NC(=O)[C@H](CC(C)C)NC(=O)[C@H](C(C)C)NC1=O [SP-178] (Ac-FIDE[R8]VLMSLV[S5]EMAA-NH2; staple 5-12)
> 700 nM | CC[C@H](C)[C@H](NC(=O)[C@H](Cc1ccccc1)NC(C)=O)C(=O)N[C@@H](CC(=O)O)C(=O)N[C@@H](CCC(=O)O)C(=O)N[C@]1(C)CCCCCCC=CCCC[C@@](C)(C(=O)N[C@@H](CCC(=O)O)C(=O)N[C@@H](CCSC)C(=O)N[C@@H](C)C(=O)N[C@@H](C)C(=O)N[C@@H](C)C(N)=O)NC(=O)[C@H](C(C)C)NC(=O)[C@H](CC(C)C)NC(=O)[C@H](CO)NC(=O)[C@H](CCSC)NC(=O)[C@H](CC(C)C)NC(=O)[C@H](C(C)C)NC1=O [SP-179] (Ac-FIDE[R8]VLMSLV[S5]EMAAA-NH2; staple 5-12)
> 700 nM | CSCC[C@H](NC(=O)[C@H](CO)NC(=O)[C@]1(C)CCCC=CCCCCCC[C@@](C)(NC(=O)[C@H](CCC(=O)O)NC(=O)[C@@H](NC(=O)[C@H](CC(C)C)NC(C)=O)[C@@H](C)O)C(=O)N[C@@H](C(C)C)C(=O)N[C@@H](CC(C)C)C(=O)N[C@@H](CCSC)C(=O)N[C@@H](CO)C(=O)N[C@@H](CC(C)C)C(=O)N[C@@H](C(C)C)C(=O)N1)C(=O)N[C@@H](C)C(N)=O [SP-180] (Ac-LTE[R8]VLMSLV[S5]SMA-NH2; staple 4-11)
> 700 nM | CSCC[C@@H]1NC(=O)[C@H](CC(C)C)NC(=O)[C@H](C(C)C)NC(=O)[C@](C)(NC(=O)[C@H](CCC(=O)O)NC(=O)[C@@H](NC(=O)[C@H](CC(C)C)NC(C)=O)[C@@H](C)O)CCCCCCC=CCCC[C@@](C)(C(=O)N[C@@H](CO)C(=O)N[C@@H](C)C(=O)N[C@@H](C)C(N)=O)NC(=O)[C@H](C(C)C)NC(=O)[C@H](CC(C)C)NC(=O)[C@H](CO)NC1=O [SP-181] (Ac-LTE[R8]VLMSLV[S5]SAA-NH2; staple 4-11)
> 700 nM | CC[C@H](C)[C@H](NC(=O)[C@H](Cc1ccccc1)NC(C)=O)C(=O)N[C@@H](CC(=O)O)C(=O)N[C@@H](CCC(=O)O)C(=O)N[C@]1(C)CCCCCCC=CCCC[C@@](C)(C(=O)N[C@@H](CCC(=O)O)C(=O)N[C@@H](CCSC)C(=O)NCC(N)=O)NC(=O)[C@H](C(C)C)NC(=O)[C@H](CC(C)C)NC(=O)[C@H](CO)NC(=O)[C@H](C)NC(=O)[C@H](CC(C)C)NC(=O)[C@H](C(C)C)NC1=O [SP-184] (Ac-FIDE[R8]VLASLV[S5]EMG-NH2; staple 5-12)

Test system: HRE-bla ME-180 cells
Assay: Reporter gene assay (HRE-bla ME-180 HIF reporter, GeneBLAzer)
Format: cell-based, human
Settings: 18 h; at top conc; 24 hrs normoxia
Summary of the method: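 A FRET β-lactamase readout of HIF transcription was used. After compound treatment in 0.3% DMSO/media under normoxic conditions, 20 μl of 6× LiveBLAzer-FRET B/G (CCF4-AM) substrate was added. Plates sat 3 hr at room temperature in the dark and were read at 409 Ex/460Em and 409Ex/530Em on a Synergy 2. Inhibition was compared against DMSO vehicle controls, with chetomin as positive control.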

SMILES | 18 h Avg % max inhibition at top conc (HIF Rptr-24 hrs normoxia) (μM)
CCCC[C@H](NC(=O)[C@H](CC(C)C)NC(=O)[C@@H](NC(=O)[C@H](CCC(=O)O)NC(=O)[C@H](CCC(=O)O)NC(=O)[C@H](CC(=O)O)NC(=O)[C@@H](NC(=O)[C@H](Cc1ccccc1)NC(C)=O)[C@@H](C)CC)C(C)C)C(=O)N[C@]1(C)CCCC=CCCC[C@](C)(C(=O)N[C@@H](CCCC)C(=O)N[C@@H](C)C(=O)N[C@@H](CC(C)C)C(=O)N[C@@H](CC(=O)O)C(=O)N[C@@H](CCCNC(=N)N)C(=O)N[C@H](C(N)=O)[C@@H](C)CC)NC(=O)[C@H]([C@@H](C)CC)NC(=O)[C@H](C(C)C)NC(=O)[C@H](CC(C)C)NC1=O [SP-296] (Ac-FIDEEVL[Nle][R5]LVI[R5][Nle]ALDRI-NH2; staple 9-13) | ++++ (≥50: ++++)

Same assay, conditions: 24 hour normoxia

EC50 | SMILES
≤ 5 µM | CCCC[C@H](NC(=O)[C@H](CC(C)C)NC(=O)[C@@H](NC(=O)[C@H](CCC(=O)O)NC(=O)[C@H](CCC(=O)O)NC(=O)[C@H](CC(=O)O)NC(=O)[C@@H](NC(=O)[C@H](Cc1ccccc1)NC(C)=O)[C@@H](C)CC)C(C)C)C(=O)N[C@]1(C)CCCC=CCCC[C@](C)(C(=O)N[C@@H](CCCC)C(=O)N[C@@H](C)C(=O)N[C@@H](CC(C)C)C(=O)N[C@@H](CC(=O)O)C(=O)N[C@@H](CCCNC(=N)N)C(=O)N[C@H](C(N)=O)[C@@H](C)CC)NC(=O)[C@H]([C@@H](C)CC)NC(=O)[C@H](C(C)C)NC(=O)[C@H](CC(C)C)NC1=O [SP-296] (Ac-FIDEEVL[Nle][R5]LVI[R5][Nle]ALDRI-NH2; staple 9-13)
